# Source: patent US4345938A, “Herbicidal 2-haloacetanilides” (Monsanto Company, priority 1980, dated 1982)
# Read-outs that look alike come from different tables or passages of the source.
# Experiments:
# Cyperus serotinus [1] = test: Field transplant rice test, applied 0 DAT, CS; format: in vivo; details: 0 h, read-out: Percent Inhibition, CS; for inhibition at 375 g/ha: 0.375 Kg/Ha; for inhibition at 750 g/ha: 0.75 Kg/Ha; for inhibition at 1500 g/ha: 1.5 Kg/Ha; for inhibition at 3000 g/ha: 3.0 Kg/Ha
# Outline: (§1)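 Field test in transplanted rice, herbicide applied as granules (2.5% or 5.0% w/w active) at transplanting (0 DAT). Rates from 3.0 kg/ha down to 0.375 kg/ha. Weed control observed weekly from 2 to 6 weeks after transplant, reported at 2, 4 and 6 WAT.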
# Eleocharis kuroguwai = test: Field transplant rice test, applied 9 DAT, EK; format: in vivo; details: for inhibition at 375 g/ha / inhibition at 750 g/ha / inhibition at 1500 g/ha / inhibition at 3000 g/ha: Eleocharis kuroguwai, 216 h, read-out: Percent Inhibition, EK; for inhibition at 375 g/ha: 0.375 Kg/Ha; for inhibition at 750 g/ha: 0.75 Kg/Ha; for inhibition at 1500 g/ha: 1.5 Kg/Ha; for inhibition at 3000 g/ha: 3.0 Kg/Ha
# Outline: (§2)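 Field test in transplanted rice, herbicides applied as granules (2.5% or 5.0% w/w active) 9 days after transplant at 3.0 down to 0.375 kg/ha. Weed control observed weekly from 3 to 7 weeks after transplant.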
# Rice [2] = test: Field transplant rice test, applied 0 DAT, rice injury; format: in vivo; details: Oryza sativa, 0 h, read-out: Percent Inhibition, Rice; for inhibition at 375 g/ha: 0.375 Kg/Ha; for inhibition at 750 g/ha: 0.75 Kg/Ha; for inhibition at 1500 g/ha: 1.5 Kg/Ha; for inhibition at 3000 g/ha: 3.0 Kg/Ha
# Outline: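 Field test in transplant rice with herbicide applied as granules at transplanting (0 DAT), at rates from 3.0 kg/ha down to 0.375 kg/ha. Injury was rated weekly from 2 to 6 weeks after transplant. Granules held 2.5% or 5.0% herbicide by weight, depending on compound.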
# Cyperus serotinus [3] = test: Field transplant rice test, applied 9 DAT, CS; format: in vivo; details: for inhibition at 375 g/ha / inhibition at 750 g/ha / inhibition at 1500 g/ha / inhibition at 3000 g/ha: Cyperus serotinus, 216 h, read-out: Percent Inhibition, CS; for inhibition at 375 g/ha: 0.375 Kg/Ha; for inhibition at 750 g/ha: 0.75 Kg/Ha; for inhibition at 1500 g/ha: 1.5 Kg/Ha; for inhibition at 3000 g/ha: 3.0 Kg/Ha
# Outline: as §2
# Monochoria vaginalis = test: Field transplant rice test, applied 0 DAT, MV; format: in vivo; details: Pontederia vaginalis, 0 h, read-out: Percent Inhibition, MV; for inhibition at 375 g/ha: 0.375 Kg/Ha; for inhibition at 750 g/ha: 0.75 Kg/Ha; for inhibition at 1500 g/ha: 1.5 Kg/Ha; for inhibition at 3000 g/ha: 3.0 Kg/Ha
# Outline: as §1
# Sagittaria trifolia = test: Greenhouse transplant rice test, ST; format: in vivo; details: Sagittaria trifolia, about 3 WAT, read-out: Percent Inhibition, ST; for inhibition at 280 g/ha: 0.28 Kg/Ha; for inhibition at 560 g/ha: 0.56 Kg/Ha; for inhibition at 1120 g/ha: 1.12 Kg/Ha; for inhibition at 2240 g/ha: 2.24 Kg/Ha
# Excerpt: (§3) The test procedure used in this greenhouse test is as follows: Ray silt loam top soil containing about 0.05% by weight of krillium and sifted through a […] screen is fumigated about 5-10 days prior to use. Pots are then filled with said Ray silt loam soil to a level to allow for a 1 in. (2.54 cm) flooding depth. Rice plants (Bluebelle) of 2 to 3 weeks age are transplanted to the pots and bulbs or seeds of the test weeds also planted in the pots. The pots are then flooded and the test chemical applied to the surface of the flood water. The flood water is reduced to allow for germination of the Echinochloa crus-galli (barnyardgrass) seed and subsequently reflooded and maintained in that condition. Observations of percent inhibition using a scale of 0-100% are made about 3 weeks after transplant (WAT).
# (§4) The test data in Table III for all compounds was obtained under identical test conditions. The weeds used in the tests herein have the following abbreviations in the tables: Echinochloa crus-galli (EC), Monochloria vaginalis (MV), Cyperus Serotinus (CS), Eleocharis Kuroguwai (EK) and Sagittaria trifolia (ST).
# Rice [4] = test: Greenhouse transplant rice test, rice injury; format: in vivo, Rice (Bluebelle); details: Oryza sativa, about 3 WAT, read-out: Percent Inhibition, Rice; for inhibition at 280 g/ha: 0.28 Kg/Ha; for inhibition at 560 g/ha: 0.56 Kg/Ha; for inhibition at 1120 g/ha: 1.12 Kg/Ha; for inhibition at 2240 g/ha: 2.24 Kg/Ha
# Excerpt: as §3, §4
smiles,measurement,setting,value
"CCCCOCN(C(=O)CCl)c1c(CC)cccc1CC [Compound A, 2',6'-diethyl-N-(n-butoxymethyl)-2-chloroacetanilide]",inhibition at 375 g/ha,Cyperus serotinus [1]; 2 WAT,67%
same,inhibition at 375 g/ha,Cyperus serotinus [1]; 4 WAT,67%
same,inhibition at 375 g/ha,Cyperus serotinus [1]; 6 WAT,63%
same,inhibition at 750 g/ha,Cyperus serotinus [1]; 2 WAT,95%
same,inhibition at 750 g/ha,Cyperus serotinus [1]; 4 WAT,93%
same,inhibition at 750 g/ha,Cyperus serotinus [1]; 6 WAT,93%
same,inhibition at 1500 g/ha,Cyperus serotinus [1]; 2 WAT,90%
same,inhibition at 1500 g/ha,Cyperus serotinus [1]; 4 WAT,82%
same,inhibition at 1500 g/ha,Cyperus serotinus [1]; 6 WAT,77%
same,inhibition at 3000 g/ha,Cyperus serotinus [1]; 2 WAT,73%
same,inhibition at 3000 g/ha,Cyperus serotinus [1]; 4 WAT,68%
same,inhibition at 3000 g/ha,Cyperus serotinus [1]; 6 WAT,50%
same,"selectivity factor (GR15/GR85), EK in transplant rice",Eleocharis kuroguwai; 3 WAT,non-selective
same,inhibition at 375 g/ha,Eleocharis kuroguwai; 3 WAT,40%
same,inhibition at 375 g/ha,Eleocharis kuroguwai; 5 WAT,22%
same,inhibition at 375 g/ha,Eleocharis kuroguwai; 7 WAT,3%
same,inhibition at 750 g/ha,Eleocharis kuroguwai; 3 WAT,37%
same,inhibition at 750 g/ha,Eleocharis kuroguwai; 5 WAT,12%
same,inhibition at 750 g/ha,Eleocharis kuroguwai; 7 WAT,3%
same,inhibition at 1500 g/ha,Eleocharis kuroguwai; 3 WAT,55%
same,inhibition at 1500 g/ha,Eleocharis kuroguwai; 5 WAT,25%
same,inhibition at 1500 g/ha,Eleocharis kuroguwai; 7 WAT,0%
same,inhibition at 3000 g/ha,Eleocharis kuroguwai; 3 WAT,68%
same,inhibition at 3000 g/ha,Eleocharis kuroguwai; 5 WAT,40%
same,inhibition at 3000 g/ha,Eleocharis kuroguwai; 7 WAT,0%
same,inhibition at 375 g/ha,Rice [2]; 2 WAT,8%
same,inhibition at 375 g/ha,Rice [2]; 4 WAT,10%
same,inhibition at 375 g/ha,Rice [2]; 6 WAT,7%
same,inhibition at 750 g/ha,Rice [2]; 2 WAT,2%
same,inhibition at 750 g/ha,Rice [2]; 4 WAT,0%
same,inhibition at 750 g/ha,Rice [2]; 6 WAT,0%
same,inhibition at 1500 g/ha,Rice [2]; 2 WAT,8%
same,inhibition at 1500 g/ha,Rice [2]; 4 WAT,23%
same,inhibition at 1500 g/ha,Rice [2]; 6 WAT,5%
same,inhibition at 3000 g/ha,Rice [2]; 2 WAT,10%
same,inhibition at 3000 g/ha,Rice [2]; 4 WAT,2%
same,inhibition at 3000 g/ha,Rice [2]; 6 WAT,3%
same,inhibition at 375 g/ha,Cyperus serotinus [3]; 3 WAT,80%
same,inhibition at 375 g/ha,Cyperus serotinus [3]; 5 WAT,33%
same,inhibition at 375 g/ha,Cyperus serotinus [3]; 7 WAT,67%
same,inhibition at 750 g/ha,Cyperus serotinus [3]; 3 WAT,70%
same,inhibition at 750 g/ha,Cyperus serotinus [3]; 5 WAT,50%
same,inhibition at 750 g/ha,Cyperus serotinus [3]; 7 WAT,38%
same,inhibition at 1500 g/ha,Cyperus serotinus [3]; 3 WAT,100%
same,inhibition at 1500 g/ha,Cyperus serotinus [3]; 5 WAT,100%
same,inhibition at 1500 g/ha,Cyperus serotinus [3]; 7 WAT,100%
same,inhibition at 3000 g/ha,Cyperus serotinus [3]; 3 WAT,88%
same,inhibition at 3000 g/ha,Cyperus serotinus [3]; 5 WAT,100%
same,inhibition at 3000 g/ha,Cyperus serotinus [3]; 7 WAT,100%
same,"selectivity factor (GR15/GR85), CS in transplant rice",Cyperus serotinus [3]; between 3 WAT and 7 WAT,2
same,inhibition at 375 g/ha,Monochoria vaginalis; 2 WAT,98%
same,inhibition at 375 g/ha,Monochoria vaginalis; 4 WAT,87%
same,inhibition at 375 g/ha,Monochoria vaginalis; 6 WAT,82%
same,inhibition at 750 g/ha,Monochoria vaginalis; 2 WAT,100%
same,inhibition at 750 g/ha,Monochoria vaginalis; 4 WAT,98%
same,inhibition at 750 g/ha,Monochoria vaginalis; 6 WAT,100%
same,inhibition at 1500 g/ha,Monochoria vaginalis; 2 WAT,100%
same,inhibition at 1500 g/ha,Monochoria vaginalis; 4 WAT,100%
same,inhibition at 1500 g/ha,Monochoria vaginalis; 6 WAT,100%
same,inhibition at 3000 g/ha,Monochoria vaginalis; 2 WAT,100%
same,inhibition at 3000 g/ha,Monochoria vaginalis; 4 WAT,100%
same,inhibition at 3000 g/ha,Monochoria vaginalis; 6 WAT,100%
same,inhibition at 280 g/ha,Sagittaria trifolia,15%
same,inhibition at 560 g/ha,Sagittaria trifolia,45%
same,inhibition at 1120 g/ha,Sagittaria trifolia,30%
same,inhibition at 2240 g/ha,Sagittaria trifolia,15%
same,inhibition at 280 g/ha,Rice [4],5%
same,inhibition at 560 g/ha,Rice [4],10%
same,inhibition at 1120 g/ha,Rice [4],10%
same,inhibition at 2240 g/ha,Rice [4],15%
"CCCCOc1cccc(CC)c1N(CC)C(=O)CCl [Example 2, N-ethyl-2'-n-butoxy-6'-ethyl-2-chloroacetanilide]",inhibition at 280 g/ha,Sagittaria trifolia,30%
same,inhibition at 560 g/ha,Sagittaria trifolia,25%
same,inhibition at 1120 g/ha,Sagittaria trifolia,70%
same,inhibition at 2240 g/ha,Sagittaria trifolia,55%
same,inhibition at 280 g/ha,Rice [4],0%
same,inhibition at 560 g/ha,Rice [4],10%
same,inhibition at 1120 g/ha,Rice [4],15%
same,inhibition at 2240 g/ha,Rice [4],25%
